{
  "source": "patent US7906488B2",
  "about": "“Sphingolipids in treatment and prevention of steatosis and of steatosis or of hepatotoxicity and its sequelae” (Nederlandse Organisatie Voor …, priority 2004, dated 2011)",
  "test_system": "APOE*3Leiden mice",
  "assay": "Effect of dietary sphingolipids on plasma C and TG levels (0.1, 0.2, 0.4% in diet)",
  "format": "in vivo",
  "details": "0.4% sphingolipid in diet, compared with 0.2%",
  "from_the_text": "Sphingolipids: The three sphingolipids that represent the most abundant natural complex sphingolipid classes and the three of the simplest natural sphingolipids, the sphingoid bases that can be formed by enzymatic breakdown of complex sphingolipids in the intestine were used. Sphingomyelin (mainly N-palmitoyl-sphingosine-1-phosphocholine) from egg was obtained from Larodan Fine Chemicals (Stockholm, Sweden). Yeast-derived (semi)synthetic ceramide III (N-stearoyl-phytosphingosine), cerebroside (N-stearoyl-phytosphingosine-1-glucose) and phytosphingosine (PS) were from Cosmoferm BV (Delft, the Netherlands). Sphinganine and sphingosine were from Avanti Polar Lipids (Albaster, Ala.). Animals and diets: Heterozygous female APOE*3Leiden transgenic mice (Van Vlijmen et al. 1994. J. Clin. Invest 93:1403-1410.) (6 months old) were fed a Western-type diet (Hope Farms, Woerden, the Netherlands) containing 15% cocoa butter, 0.25% cholesterol, 1% corn oil, 40.5% sucrose, 20% acid casein, 10% corn starch and 5.95% cellulose (all w/w) for 5 weeks. The mice were allowed free access to food and water. Body weight and food intake were monitored weekly. In the first experiment (FIG. 2), the mice were randomized after these 5 weeks into 7 groups (n=6), based on plasma cholesterol, triglycerides, and body weight. Subsequently, the mice were fed for three weeks the same diet without or with 0.1% (w/w) phytosphingosine (PS), sphingosine, sphinganine, cerebroside, ceramide III, or sphingomyelin. […]\nPlasma parameters: Tail blood samples were collected in EDTA-coated cups, or in paraoxon-coated capillaries to prevent lipolysis as described in Zambon et al. 1993 (Zambon et al. 1993. J. Lipid Res. 34:1021-1028). Plasma lipid parameters were determined using commercial kits for total cholesterol (C) Chol R1 from Roche Diagnostics, Mannheim, Germany), non-esterified free fatty acids (FFA) (NEFA-C; Wako chemicals, Neuss, Germany), Total triglycerides (TG) (Triglyceride GPO-Trinder; Sigma, St. Louis, Mo.), β-hydroxybutyrate (β-HB; Sigma) and ALAT (Reflotron GPT; Roche). Serum amyloid A (SAA) was measured by ELISA (Biosource, Nivelles, Belgium) and fibrinogen by sandwich ELISA, as described in Koopman et al., 2005 (Koopman et al. 2005. Fibrinol Proteol 11:19). […] Hepatic VLDL-TG production: The rate of hepatic VLDL-TG production, de novo apoB secretion, and VLDL composition were determined in overnight-fasted mice. […] After 30 min, the animals received a Triton WR1339 injection (Tyloxapol, Sigma; 500 mg/kg body weight in 100 μl saline) to prevent systemic lipolysis of newly-secreted hepatic VLDL-TG (Aalto-Setala et al. 1992. J. Clin. Invest 90:1889-1900.27) Blood samples were drawn at 0, 15, 30, 60, and 90 min after Triton WR1339 injection and plasma TG concentrations were determined. […]",
  "data": [
    {"compound": "CCCCCCCCCCCCCC[C@@H](O)[C@@H](O)[C@@H](N)CO", "note": "[PS, phytosphingosine]", "values": [
      {"measurement": "Plasma C", "value": "decreased even more"}
    ]}
  ]
}
